Measured values: US20260060969A1, “METHODS FOR THE TREATMENT OF LYMPHOPROLIFERATIVE DISORDERS” (INSTITUT NATIONAL DE LA SANTÉ ET DE LA RECHERCHE MÉDICALE, priority 2022, published 2026)

Experiments:
[1] = system: MRL/MpJ-Faslpr/J mice (MRL-lpr); assay: Alpelisib in MRL/MpJ-Faslpr/J (MRL-lpr) mice, model of lymphoproliferative disorder (spleen and lymph node size, flow cytometry); format: in vivo, mouse; details: 4 weeks
Description: (§1) They then decided to explore the relevance of alpelisib in MRL/MpJ-Faslpr/J mice (referred here as MRL-lpr), another mouse model of lymphoproliferative disorder. These mice with homozygous Fas mutation usually develop severe lymphadenoproliferation. Female mice die at an average of 18-20 weeks old. They first randomly assigned to either vehicle or alpelisib MRL-lpr female mice at 8 weeks old, before they fully develop diseases.
(§2) FIG. 1: Alpelisib improves lymphoproliferative mouse models. A. Spleen to body weight ratio at the time of sacrifice (4 weeks following treatment either with vehicle or alpelisib) (n=5-15 mice per group). B-F. Percentage of spleen cell population determined by flow cytometry analysis in NZBWF1/J mice treated with either vehicle or alpelisib. Spleen to body weight ratio of MRL-lpr mice treated either with vehicle or alpelisib for 4 weeks (n=14 mice per group). Percentage of peripheral blood monuclear cell (PBMC), bone marrow, spleen and lymph nodes cell population determined by flow cytometry analysis in MRL-lpr mice treated with either vehicle or alpelisib for 4 weeks (n=8-9 mice per group). CD4, CD8, B220, Mac1, Gr1 are used as lineage markers.
FIG. 2: Alpelisib modifies mononuclear cell population in MRL-lpr mice. Flow cytometry analysis of bone marrow, spleen, lymph nodes, and PBMC in MRL-lpr mice treated either with vehicle or alpelisib for 4 weeks (n=8-9 mice per group). CD4, CD8, B220, Mac1, Gr1 are used as lineage markers.
as §1, with “We” for “They”

NZBWF1/J mice = assay: Alpelisib in NZBWF1/J mice, model of lymphoproliferative disorders (spleen size, splenocyte flow cytometry); format: in vivo, mouse; details: female NZBWF1/J mice aged 24 weeks, 4 weeks treatment, vs vehicle
Experimental: (§3) Inventors have first investigated the impact of PIK3CA inhibition in NZBWF1/J mice a model of lymphoproliferative disorders. They randomly assigned 30 females aged of 24 weeks to receive either vehicle (n=15) or alpelisib (n=15) during 4 weeks. At the end of the treatment period, mice were sacrificed and flow cytometry was performed in splenocytes.
as §2
as §3, with “We” for “Inventors have”, “We” for “They”

PROS patients = PROS patients in poor condition; earlier work told in the background; cited from earlier work
[2] = MRL-lpr mice, PBMC, lymph nodes and spleen
[3] = female MRL-lpr mice treated from 8 weeks old, at sacrifice, vs vehicle

Cc1nc(NC(=O)N2CCC[C@H]2C(N)=O)sc1-c1ccnc(C(C)(C)C(F)(F)F)c1 [alpelisib]
B cells (flow cytometry) [1, 2]: correction | T cells (flow cytometry) [1, 2]: correction | other immune cells (flow cytometry) [1, 2]: correction | lymph node size [1, 3]: reduction | spleen size [1, 3]: reduction | spleen size (spleen to body weight ratio, FIG. 1A) (NZBWF1/J mice; at sacrifice): significantly reduced | B cells (flow cytometry in splenocytes) (NZBWF1/J mice; spleen): significantly reduced | CD8 cells count (flow cytometry in splenocytes) (NZBWF1/J mice; spleen): corrected | clinical, biological and radiological outcome (PROS patients): clinical, biological and radiological improvements
